# From US20240261418A1, “SOS1 DEGRADING AGENT AND PREPARATION METHOD THEREFOR AND APPLICATION THEREOF” (SHANGHAI LEADINGTAC PHARMACEUTICAL CO. LTD., priority 2021, published 2024)
# Key:
# KRAS-G12C/SOS1 = target: T1, KRAS-G12C/SOS1 (Homo sapiens, UniProt Q07889); experiment: KRAS-G12C/SOS1 binding assay (HTRF); conditions: inhibition of KRAS-G12C/SOS1 binding
# T1 construct: purchased Cisbio 63ADK000CB16PEG
# T1 sequence (Q07889 1-1333): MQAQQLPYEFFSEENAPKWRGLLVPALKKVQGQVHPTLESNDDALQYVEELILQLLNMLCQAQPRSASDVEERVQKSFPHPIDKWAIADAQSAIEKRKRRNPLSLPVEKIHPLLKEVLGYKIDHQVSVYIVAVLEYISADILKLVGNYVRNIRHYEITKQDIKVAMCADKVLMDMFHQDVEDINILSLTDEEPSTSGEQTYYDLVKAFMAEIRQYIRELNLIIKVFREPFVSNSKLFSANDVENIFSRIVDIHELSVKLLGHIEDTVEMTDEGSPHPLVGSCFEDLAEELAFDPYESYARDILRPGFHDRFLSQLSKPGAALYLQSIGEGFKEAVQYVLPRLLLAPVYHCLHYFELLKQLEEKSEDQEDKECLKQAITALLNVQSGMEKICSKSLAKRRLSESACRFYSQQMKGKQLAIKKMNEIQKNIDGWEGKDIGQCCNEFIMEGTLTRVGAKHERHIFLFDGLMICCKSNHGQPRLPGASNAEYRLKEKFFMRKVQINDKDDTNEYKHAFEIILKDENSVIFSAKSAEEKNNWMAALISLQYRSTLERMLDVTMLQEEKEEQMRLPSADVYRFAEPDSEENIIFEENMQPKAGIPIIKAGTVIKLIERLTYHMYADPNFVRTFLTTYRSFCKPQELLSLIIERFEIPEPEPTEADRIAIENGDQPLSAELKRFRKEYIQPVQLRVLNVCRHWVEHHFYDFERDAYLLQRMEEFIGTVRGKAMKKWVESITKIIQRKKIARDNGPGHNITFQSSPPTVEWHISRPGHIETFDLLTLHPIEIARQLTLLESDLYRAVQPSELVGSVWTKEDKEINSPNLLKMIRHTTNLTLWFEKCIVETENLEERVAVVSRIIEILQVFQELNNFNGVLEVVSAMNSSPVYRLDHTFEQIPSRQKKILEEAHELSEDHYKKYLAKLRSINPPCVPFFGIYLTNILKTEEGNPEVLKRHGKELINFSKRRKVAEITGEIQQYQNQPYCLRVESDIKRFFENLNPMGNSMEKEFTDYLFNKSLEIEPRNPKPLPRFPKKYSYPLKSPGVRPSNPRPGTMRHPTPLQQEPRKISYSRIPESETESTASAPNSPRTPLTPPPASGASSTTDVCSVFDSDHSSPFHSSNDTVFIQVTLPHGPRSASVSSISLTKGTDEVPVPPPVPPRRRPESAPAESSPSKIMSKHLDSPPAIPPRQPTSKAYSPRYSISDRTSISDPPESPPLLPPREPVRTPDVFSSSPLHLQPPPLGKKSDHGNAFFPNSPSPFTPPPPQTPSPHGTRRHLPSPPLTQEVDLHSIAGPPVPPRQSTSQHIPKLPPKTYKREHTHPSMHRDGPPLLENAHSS
# Method: Test Example 1: KRAS-G12C/SOS1 Binding Assay
# The following method was used to determine the extent of inhibition of KRAS-G12C/SOS1 binding by the preferred compounds of the present invention under in vitro conditions. In this method, the competitive inhibition of KRAS-G12C/SOS1 binding by the preferred compounds was assayed by the homogeneous time-resolved fluorescence (HTRF) technology using the KRAS-G12C/SOS1 binding assay kit (Cisbio, 63ADK000CB16PEG).
# The experimental procedures were as follows (refer to the kit instructions for details): the compounds of the present invention were each firstly dissolved in DMSO at a concentration of 20 mM, and then diluted in an equal gradient with a buffer in the kit, so that the final concentrations of the test compounds in the reaction system were in a range of 10000 nM-0.04 nM, and the final concentration of DMSO was 0.5%. 2 μL of the compounds were each incubated with 4 μL of 1×Tag1-SOS1, 4 μL of 1×Tag2-KRAS-G12C (containing 10 μM guanosine triphosphate, GTP) at 25° C. for 15 min. Then 5 μL of 1×Anti-Tag1-Tb3+ and 5 μL of 1×Anti-Tag2-XL665 were added to the reaction system, and the mixture was incubated on ice for 3 h. After the incubation, the fluorescence intensity of each well was measured at the excitation wavelength of 337 nm, the fluorescence intensity of each well was read at the emission wavelengths of 620 nm and 665 nm on a microplate reader EnVision (PerkinElmer, 2105) in an HTRF mode, and the Ratio value was calculated by the formula Ratio=(665 nm/620 nm)×[…]. The inhibition rates of the compounds at each concentration were calculated by comparing the fluorescence intensity ratio with that of the control group, and then nonlinear curve fitting was performed by GraphPad Prism 8 in the logarithmic concentration-inhibition rate to obtain the IC50 values of the compounds, as shown in Table 1.
# [1] = tested on: KRAS G12C mutant human non-small cell lung cancer cells NCI-H358; experiment: 3D cell proliferation inhibition assay, NCI-H358; type: cell-based; conditions: NCI-H358, 168 h, 7 days, CTG
# Source text: Test Example 4: 3D Cell Proliferation Inhibition Assay
# The inhibitory effect of the compounds on the proliferation of 3D cells was investigated on KRAS G12C mutant human non-small cell lung cancer cells NCI-H358 (ATCC or Stem Cell Bank, Chinese Academy of Sciences), KRAS G12D mutant human metastatic pancreatic adenocarcinoma cells AsPC-1 (ATCC), KRAS G12V mutant human lung adenocarcinoma cells NCI-H441 (ATCC), and KRAS G13D mutant human colorectal adenocarcinoma epithelial cells DLD-1 (ATCC). The specific procedures were as follows:
# 200 nL of compound solution diluted in a gradient was added to corresponding microwells of a 384-well low-adsorption microwell plate (Corning, 3657) using an Echo sonic pipetting system (Labcyte, Echo 550), so that the final concentration of the test compound in the reaction system was in a range of 20000 nM-0.008 nM. Then 40 μL of cells at a certain density were added to the corresponding microplate. In addition to test wells for the test compounds, both a DMSO control well and a medium control well were set, with the DMSO control well containing DMSO and cells and the medium well containing only medium. […] The plate was incubated at room temperature for 30 min and read on a microplate reader EnVision using the chemiluminescence program. […]
IC50 (KRAS-G12C/SOS1),IC50 [1],SMILES
≤ 15 nM,≤ 15 nM,"COc1cc2nc(C)nc(N[C@H](C)c3cc(-c4c(Cl)cccc4CN(C)C)cs3)c2cc1[C@H]1CC[C@H](C(=O)N2CCC(CCOCC3CCN(C(=O)c4ccc(Cl)c(N5CCC(=O)NC5=O)c4)CC3)CC2)CC1 [Example 5, 1-(2-chloro-5-(4-((2-(1-((1R,4R)-4-(4-(((R)-1-(4-(2-chloro-6-((dimethylamino)methyl)phenyl)thien-2-yl)ethyl)amino)-7-methoxy-2-methylquinazolin-6-yl)cyclohexane-1-carbonyl)piperidin-4-yl)ethoxy)methyl)piperidine-1-carbonyl)phenyl)dihydropyrimidine-2,4(1H,3H)-dione]"
≤ 15 nM,≤ 15 nM,"COc1cc2nc(C)nc(N[C@H](C)c3cc(-c4c(Cl)cccc4CN(C)C)cs3)c2cc1[C@H]1CC[C@H](C(=O)N2CCN(CC3CCC4(CC3)CCN(C(=O)c3ccc(Cl)c(N5CCC(=O)NC5=O)c3)CC4)CC2)CC1 [Example 1, 1-(2-chloro-5-(9-((4-((1R,4R)-4-(4-(((R)-1-(4-(2-chloro-6-((dimethylamino)methyl)phenyl)thien-2-yl)ethyl)amino)-7-methoxy-2-methylquinazolin-6-yl)cyclohexane-1-carbonyl)piperazin-1-yl)methyl)-3-azaspiro[5.5]undecane-3-carbonyl)phenyl)dihydropyrimidine-2,4(1H,3H)-dione]"
